From ChEMBL document CHEMBL1201862, “PubChem BioAssay data set” (2004)
Activity calls are given as the source filed them. For most assays here, no stated cut-off is given here; in the data, actives have a measured IC50 and inactives only a lower limit.

Legend:
[1] = target: T1, Zinc finger protein mex-5 (Caenorhabditis elegans, UniProt Q9XUB2); assay: MEX-5/TCR-2 RNA interaction inhibitors, dose response, biochemical, C. elegans, fluorescence polarization (AID 1960)
T1 sequence (Q9XUB2 whole entry): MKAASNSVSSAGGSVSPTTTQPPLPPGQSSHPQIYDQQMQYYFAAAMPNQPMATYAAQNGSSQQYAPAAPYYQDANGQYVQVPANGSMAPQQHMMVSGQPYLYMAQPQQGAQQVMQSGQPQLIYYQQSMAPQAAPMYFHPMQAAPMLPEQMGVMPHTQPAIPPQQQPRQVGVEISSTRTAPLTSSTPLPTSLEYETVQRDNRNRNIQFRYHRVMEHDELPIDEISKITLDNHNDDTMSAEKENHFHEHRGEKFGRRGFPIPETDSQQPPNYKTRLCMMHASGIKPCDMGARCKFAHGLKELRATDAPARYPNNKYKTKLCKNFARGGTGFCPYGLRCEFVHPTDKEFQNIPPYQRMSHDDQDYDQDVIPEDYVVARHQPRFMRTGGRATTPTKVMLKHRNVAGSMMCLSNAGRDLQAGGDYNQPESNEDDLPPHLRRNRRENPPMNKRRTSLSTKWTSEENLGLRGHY

[2] = target: T2, Apoptotic protease-activating factor 1 (Homo sapiens, UniProt O14727); assay type: functional
T2 sequence (O14727 whole entry): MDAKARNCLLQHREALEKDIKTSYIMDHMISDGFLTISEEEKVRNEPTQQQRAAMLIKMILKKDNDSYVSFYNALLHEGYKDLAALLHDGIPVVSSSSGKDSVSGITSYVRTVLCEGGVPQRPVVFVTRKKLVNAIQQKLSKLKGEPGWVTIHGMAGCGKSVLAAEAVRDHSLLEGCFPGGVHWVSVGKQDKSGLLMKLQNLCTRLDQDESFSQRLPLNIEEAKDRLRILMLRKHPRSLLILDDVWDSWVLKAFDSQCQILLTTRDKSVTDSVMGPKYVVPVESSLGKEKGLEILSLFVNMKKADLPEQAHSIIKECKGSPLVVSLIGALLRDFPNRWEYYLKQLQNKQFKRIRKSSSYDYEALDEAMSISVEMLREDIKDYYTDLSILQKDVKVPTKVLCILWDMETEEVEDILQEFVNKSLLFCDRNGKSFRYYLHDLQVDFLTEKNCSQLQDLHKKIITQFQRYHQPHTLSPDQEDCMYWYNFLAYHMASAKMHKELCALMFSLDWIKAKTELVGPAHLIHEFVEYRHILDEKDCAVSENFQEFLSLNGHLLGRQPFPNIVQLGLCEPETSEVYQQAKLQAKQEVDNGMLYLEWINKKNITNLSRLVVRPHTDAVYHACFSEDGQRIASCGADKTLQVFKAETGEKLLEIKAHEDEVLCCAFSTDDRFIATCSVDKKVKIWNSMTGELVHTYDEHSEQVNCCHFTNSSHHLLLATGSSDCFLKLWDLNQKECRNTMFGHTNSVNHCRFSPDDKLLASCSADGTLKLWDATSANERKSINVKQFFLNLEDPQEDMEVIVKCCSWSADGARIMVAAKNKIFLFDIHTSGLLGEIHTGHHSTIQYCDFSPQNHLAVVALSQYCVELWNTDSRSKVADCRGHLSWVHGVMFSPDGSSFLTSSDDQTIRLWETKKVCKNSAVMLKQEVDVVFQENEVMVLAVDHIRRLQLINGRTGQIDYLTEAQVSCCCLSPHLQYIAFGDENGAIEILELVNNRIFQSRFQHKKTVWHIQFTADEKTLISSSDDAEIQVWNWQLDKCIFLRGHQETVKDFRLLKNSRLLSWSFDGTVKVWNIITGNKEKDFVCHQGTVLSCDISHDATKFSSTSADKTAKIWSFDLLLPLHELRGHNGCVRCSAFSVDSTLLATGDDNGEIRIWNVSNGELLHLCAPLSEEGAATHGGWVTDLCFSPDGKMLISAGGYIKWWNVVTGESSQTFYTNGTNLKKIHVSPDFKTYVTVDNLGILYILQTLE

[3] = target: T3, Sentrin-specific protease 7 (Homo sapiens, UniProt Q9BQF6); assay type: functional;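 further: Luminescence-based dose-response confirmation of ultra-high-throughput screening hits, measuring inhibition of SENP7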
T3 sequence (Q9BQF6 whole entry): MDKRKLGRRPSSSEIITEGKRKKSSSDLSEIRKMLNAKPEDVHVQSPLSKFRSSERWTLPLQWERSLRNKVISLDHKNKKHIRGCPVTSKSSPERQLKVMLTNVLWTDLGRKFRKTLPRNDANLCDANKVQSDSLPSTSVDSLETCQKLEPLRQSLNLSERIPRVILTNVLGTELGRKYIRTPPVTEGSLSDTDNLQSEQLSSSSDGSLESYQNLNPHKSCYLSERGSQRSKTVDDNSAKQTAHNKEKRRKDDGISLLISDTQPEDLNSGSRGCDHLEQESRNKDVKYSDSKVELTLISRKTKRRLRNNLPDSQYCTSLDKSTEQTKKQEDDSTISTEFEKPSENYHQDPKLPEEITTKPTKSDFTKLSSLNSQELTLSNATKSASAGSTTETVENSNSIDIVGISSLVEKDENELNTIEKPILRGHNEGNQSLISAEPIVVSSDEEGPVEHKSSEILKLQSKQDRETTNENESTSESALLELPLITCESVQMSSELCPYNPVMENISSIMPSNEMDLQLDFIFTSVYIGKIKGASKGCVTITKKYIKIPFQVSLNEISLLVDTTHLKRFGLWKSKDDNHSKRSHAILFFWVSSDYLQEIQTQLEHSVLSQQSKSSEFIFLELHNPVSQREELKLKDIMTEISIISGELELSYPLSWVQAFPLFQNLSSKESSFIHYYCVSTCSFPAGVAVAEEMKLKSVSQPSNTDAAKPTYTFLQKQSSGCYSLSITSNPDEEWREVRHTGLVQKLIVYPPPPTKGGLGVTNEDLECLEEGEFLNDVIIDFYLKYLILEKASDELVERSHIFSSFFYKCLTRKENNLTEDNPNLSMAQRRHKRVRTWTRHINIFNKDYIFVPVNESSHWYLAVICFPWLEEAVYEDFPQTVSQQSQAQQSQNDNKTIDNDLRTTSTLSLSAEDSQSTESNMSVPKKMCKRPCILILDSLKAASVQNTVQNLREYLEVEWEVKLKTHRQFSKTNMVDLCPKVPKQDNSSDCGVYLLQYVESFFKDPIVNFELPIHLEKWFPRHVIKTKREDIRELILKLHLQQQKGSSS

Compound | EC50 [1] | IC50 [2] | IC50 [3]
O=C(O)c1ccc(S(=O)(=O)/N=C2\C=C(Nc3ccccc3F)C(=O)c3ccccc32)cc1 | 60.8 µM (active) | 3 µM (active) | 
Cc1ccc(NC2=CC(=O)C(=O)c3ccccc32)cc1 |  |  | 36.7 µM (active)
